Test results published in US20140050778A1, “NUCLEIC ACID BINDING COMPOUNDS, METHODS OF MAKING, AND USE THEREOF” (UNIVERSITY OF ROCHESTER, priority 2010, published 2014).

Legend:
human fibroblasts = experiment: MTT toxicity assay; assay type: cell-based; details: compounds 4 and 5 measured as a mixture, concentrations up to 500 μM
Method: For toxicity studies, mouse myoblasts or human fibroblasts were plated in a 96-well tissue culture plate in DMEM (10% fetal bovine serum, 100 units/ml penicillin, […]) and allowed to grow to approximately 80% confluence at 37° C. under CO2. Varying compound concentrations (up to 1 mM) were incubated with cells (48 hours, 37° C.). Media was then removed, and 3-(4,5-dimethylthiazol-2-yl)-2,5-diphenyltetrazolium bromide (“MTT”) in media was added to each well and incubated at 37° C. for 4 h. After removal of the MTT media, isopropanol (100 pp was added, and absorbance was measured at 600 nm on a Modulus microplate reader (Turner Biosystems).
SPR and fluorescence titration experiments, performed using the protocol described in Examples 3 and 4 above, except using as the target a highly conserved RNA sequence responsible for regulating the production of the Gag-Pol polyprotein via a −1 ribosomal frameshift, which occurs along a “slippery sequence” in gag-pol mRNA (SEQ ID NO: 7). This “frameshift stimulatory sequence” (or “HIV-1 FSS”) consists of an upper stemloop and a lower stem, separated by a purine bulge in the most common types of HIV (FIG. 19). For the fluorescent titration experiments, the upper stemloop of SEQ ID NO: 7 was employed. Cell uptake and toxicity studies were carried out using human fibroblasts according to Example 5 above.

[1] = tested on: C5-14 C2C12 mouse myoblasts ((CUG)800 RNA-MBNL1 complexes); experiment: Firefly luciferase reporter with ~800 CUG repeats in hDMPK 3'UTR; assay type: cell-based; details: C5-14 myoblasts, 3 days; compound 4 0-100 μM, compound 11 0-200 μM
Method: (§1) The ability of selected compounds to inhibit the formation of CUG^exp RNA-MBNL1 complexes in mouse myoblasts was then evaluated. […] Cells were grown in 100 μl growth media in 96-well plates to 10% confluency. […] Culture media was replaced with fresh media containing 1% WST-1 reagent (Roche). After 15-20 minutes of incubation, the WST-1 containing media was transferred to a clear 96-well plate, and the absorbances at 450 nm and 690 nm measured with a PerkinElmer EnVision Plate Reader. Cells were gently rinsed (1×PBS) before incubation at -20° C. in 100 μl 1X Passive Lysis Buffer (Promega) for 10 minutes. Immediately before luminescence detection, 20 μl of each lysate was mixed with 50 μl of Luciferase Assay Reagent (Promega) in a fresh opaque-white 96-well plate. Luminescence values were normalized for well-to-well variations in viable cell numbers by dividing by the corresponding (A450 nm-[…] nm) values of the WST-1 containing media. […] Thus, CUG^exp binding compounds are capable of releasing the sequestered mRNA transcripts into the cytoplasm for translation.

[2] = tested on: C1-S C2C12 mouse myoblasts; experiment: Firefly luciferase reporter without CUG repeats (control); assay type: cell-based; details: C1-S cells (no CUG repeats), 3 days
Method: as §1

C1-S cells = experiment: Total protein in cell lysates (Bradford assay); assay type: cell-based, mouse; details: increasing concentration
C5-14 cells = assay type: cell-based, mouse
From the text: Formation of (CUG)800 RNA-MBNL1 complexes in the C5-14 cell line suppresses translation of this mRNA and, therefore, suppresses the cellular level of luciferase Inhibition of protein complexation to the (CUG)800 RNA allows translation to occur, restoring luciferase expression. A second cell line (C1-S) carrying an analogous luciferase construct lacking the CUG repeats in the 3′-UTR was used as a positive control for luciferase expression. […] It was hypothesized that binding of the compounds of the present invention to the (CUG)800 repeat in C5-14 cells would likewise promote release of the luciferase transcripts from the nucleus, resulting in increased luciferase expression and activity. In contrast, luciferase activity in positive control (C1-S) cells should not be affected by the presence of CUG RNA binding compounds. […] The fact that this effect is not observed for compounds 10 and 11 likely results from their greater selectivity for CUG repeats. Thus, CUG^exp binding compounds are capable of releasing the sequestered mRNA transcripts into the cytoplasm for translation.

HSA^LR transgenic mice = experiment: MBNL1-dependent splicing in mouse myotonic dystrophy model (RT-PCR, vastus muscle); assay type: in vivo; details: 40 mg/kg intraperitoneally once per day for 5 days
Method: Mouse handling and experimental procedures were conducted in accordance with the Association for Assessment and Accreditation of Laboratory Animal Care. […] Age- and gender-matched HSA^LR mice (12-16 weeks old) were injected intraperitoneally with 40 mg/kg of compounds or saline alone once per day for 5 days. Mice were sacrificed one day after the last injection, and vastus muscle was obtained for splicing analysis. RNA extraction, cDNA preparation, and RT-PCR were performed as described previously. The PCR products were electrophoresed on agarose gels for separation, and scanned with a laser fluorimager (Typhoon, GE Healthcare). Quantitative analysis of amplified products was performed by ImageQuant software (Molecular Dynamics). Differences between two groups were evaluated by unpaired Student's t-test. A critical test of a compound's performance is its ability to function in vivo. DM1 has several well-studied mouse models (Gomes-Pereira et al., “Myotonic Dystrophy Mouse Models: Towards Rational Therapy Development,” Trends Mol. Med. 17:506-517 (2011), which is hereby incorporated by reference in its entirety). Compound activity in the HSA^LR mouse model, in which transgenic mice carry a long CTG repeat inserted into the human skeletal actin (HSA) gene in skeletal muscle (Mankodi, “Myotonic Dystrophy in Transgenic Mice Expressing an Expanded CUG Repeat,” Science 289:1769-1772 (2000), which is hereby incorporated by reference in its entirety) was examined. […] They also display aberrant splicing of genes, including Clcn1 and Atp2a1, which are hallmarks of nuclear transcript sequestration.

mouse C2C12 myoblasts = experiment: Cell permeability by fluorescence microscopy; assay type: cell-based; details: 12 h, 125 μM, intrinsic fluorescence
Method: For cell permeability studies, human fibroblasts or mouse myoblasts grown to 80% confluence were exposed to compounds for 12 hours in a 96 well tissue culture plate. After removal of the culture media (DMEM, with 10% FBS, 1% pen-strep (GIBCO)) the cells were washed twice with PBS to remove excess compounds. Cells were then imaged while in buffer under a fluorescence microscope (Olympus IX70) in the 96-well plate using a 460 nm emission filter.

SMILES | toxicity (MTT) (human fibroblasts) | luciferase activity [1] | luciferase signal [2] | concentration of total protein in cell lysates (C1-S cells) | concentration of total protein in cell lysates (C5-14 cells) | improvement of Atp2a1 splicing (HSA^LR transgenic mice) | improvement of Clcn1 splicing (HSA^LR transgenic mice) | cell membrane penetration / localization (mouse C2C12 myoblasts)
CCc1nc2cc3ccccc3cc2cc1C(=O)N1CCC[C@H]1C(=O)N[C@@H](C/C=C\C[C@H](NC(=O)[C@@H]1CCCN1C(=O)c1cc2cc3ccccc3cc2nc1CC)C(=O)N[C@@H](CCCCN)C(=O)NCCCN)C(=O)N[C@@H](CCCCN)C(=O)NCCCN [Compound 4] | no significant toxicity | concentration-dependent increases in luciferase activity | concentration-dependent decrease in luciferase activity | decreasing level of protein expression | decreasing level of protein expression | qualitatively appeared to restore splicing | modest but statistically significant (P=0.0115) improvement | 
CCc1nc2cc3ccccc3cc2cc1C(=O)N1CCC[C@H]1C(=O)N[C@@H](C/C=C/C[C@H](NC(=O)[C@@H]1CCCN1C(=O)c1cc2cc3ccccc3cc2nc1CC)C(=O)N[C@@H](CCCCN)C(=O)NCCCN)C(=O)N[C@@H](CCCCN)C(=O)NCCCN [Compound 5] | no significant toxicity |  |  |  |  |  |  | readily penetrate cell membranes and localize in the nucleus
